Assays:
[1] = test system: A549 cells; assay: A549 proliferation (viability) assay, Cell Titer Fluor, 72 hours; format: cell-based; conditions: Homo sapiens
In short: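 1000 A549 cells/well, RPMI 1640/10% dialyzed FBS, 24 h attach; compound 72 h, 0.5% DMSO, 37 °C/5% CO2; Cell Titer Fluor fluorescence; EC50 via 4-parameter logistic.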

[2] = biological target: T1, GLS1 (purified recombinant human GAC) (Homo sapiens, UniProt O94925); assay: GLS1 enzymatic activity assay (dual-coupled, Amplex UltraRed/resorufin); format: biochemical
T1 sequence (O94925 55-598 isoform O94925-3 limits assumed): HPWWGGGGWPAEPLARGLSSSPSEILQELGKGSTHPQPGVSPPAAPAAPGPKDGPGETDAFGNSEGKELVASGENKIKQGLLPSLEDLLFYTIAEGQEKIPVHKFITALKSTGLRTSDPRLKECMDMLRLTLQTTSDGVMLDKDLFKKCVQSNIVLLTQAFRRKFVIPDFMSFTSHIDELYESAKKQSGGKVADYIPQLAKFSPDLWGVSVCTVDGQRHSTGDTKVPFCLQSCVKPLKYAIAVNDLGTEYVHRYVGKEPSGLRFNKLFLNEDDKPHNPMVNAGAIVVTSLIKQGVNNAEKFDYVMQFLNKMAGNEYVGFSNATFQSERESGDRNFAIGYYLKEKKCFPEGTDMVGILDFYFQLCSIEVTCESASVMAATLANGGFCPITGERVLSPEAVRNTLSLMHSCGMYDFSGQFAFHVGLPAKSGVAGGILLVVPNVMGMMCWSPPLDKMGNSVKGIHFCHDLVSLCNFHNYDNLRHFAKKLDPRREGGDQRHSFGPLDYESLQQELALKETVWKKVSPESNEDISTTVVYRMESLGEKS
In short: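 GAC activity measured by coupling glutamate to glutamate oxidase and HRP, generating resorufin from Amplex UltraRed. Enzyme (2 nM) preincubated with 50 mM potassium phosphate 10 min at room temperature, then inhibitor 10 min; 1 mM glutamine substrate, 1% DMSO. Fluorescence 530/590 nm, kinetic or 20-min endpoint; IC50 from four-parameter logistic fit.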

| SMILES | EC50 [1] [nM] | IC50 [2] [nM] |
| --- | --- | --- |
| CCOC(=O)N1CCC(CC(=O)Nc2ccn(CCC(F)Cn3cc(C(=O)NCc4cccc(OC(F)(F)F)c4)nn3)c(=O)c2F)CC1 (stereo not shown) [Example 300, ethyl 4-{[(3-fluoro-1-{3-fluoro-4-[4-({[3-(trifluoro-methoxy)phenyl]methyl}carbamoyl)-1H-1,2,3-triazol-1-yl]butyl}-2-oxo-1,2-dihydropyridin-4-yl)carbamoyl]methyl}piperidine-1-carboxylate] | < 100 | < 100 |
| O=C(CC1CCN(C(=O)CC(F)(F)F)CC1)Nc1ccn(CCC(F)Cn2cc(C(=O)NCc3cccc(OC(F)(F)F)c3)nn2)c(=O)c1F (stereo not shown) [Example 301, 1-[2-fluoro-4-(3-fluoro-2-oxo-4-{2-[1-(3,3,3-trifluoropropanoyl)piperidin-4-yl]acetamido}-1,2-dihydropyridin-1-yl)butyl]-N-{[3-(trifluoromethoxy)phenyl]methyl}-1H-1,2,3-triazole-4-carboxamide] | < 100 | < 100 |
| Cc1ccc(CNC(=O)c2cn(CC(F)CCn3ccc(NC(=O)CC4CCCC4)c(F)c3=O)nn2)cn1 (stereo not shown) [Example 303, 1-{4-[4-(2-cyclopentylacetamido)-3-fluoro-2-oxo-1,2-dihydropyridin-1-yl]-2-fluorobutyl}-N-[(6-methylpyridin-3-yl)methyl]-1H-1,2,3-triazole-4-carboxamide] | < 100 | < 100 |
| Cc1ccc(CNC(=O)c2cn(CC(F)CCn3ccc(NC(=O)CC4CCC4)c(F)c3=O)nn2)cn1 (stereo not shown) [Example 304, 1-(4-(4-(2-cyclobutylacetamido)-3-fluoro-2-oxopyridin-1(2H)-yl)-2-fluorobutyl)-N-((6-methylpyridin-3-yl)methyl)-1H-1,2,3-triazole-4-carboxamide] | < 100 | < 100 |
| Cc1ccc(CNC(=O)c2cn(CC(F)CCn3ccc(NC(=O)Cc4ccccc4)c(F)c3=O)nn2)cn1 (stereo not shown) [Example 307, 1-{2-fluoro-4-[3-fluoro-2-oxo-4-(2-phenylacetamido)-1,2-dihydropyridin-1-yl]butyl}-N-[(6-methylpyridin-3-yl)methyl]-1H-1,2,3-triazole-4-carboxamide] | 100 to 500 | < 100 |
| O=C(CN1CCN(C(=O)CC(F)(F)F)CC1)Nc1ccn(CCC(F)Cn2cc(C(=O)NCc3cccc(OC(F)(F)F)c3)nn2)c(=O)c1F (stereo not shown) [Example 308, 1-[2-fluoro-4-(3-fluoro-2-oxo-4-{2-[4-(3,3,3-trifluoropropanoyl)piperazin-1-yl]acetamido}-1,2-dihydropyridin-1-yl)butyl]-N-{[3-(trifluoromethoxy)phenyl]methyl}-1H-1,2,3-triazole-4-carboxamide] | 100 to 500 | < 100 |
| CCOC(=O)c1cn(CC(F)CCn2ccc(NC(=O)OC(C)(C)C)c(F)c2=O)nn1 (stereo not shown) [Example 311, ethyl 1-[4-(4-{[(tert-butoxy)carbonyl]amino}-3-fluoro-2-oxo-1,2-dihydropyridin-1-yl)-2-fluorobutyl]-1H-1,2,3-triazole-4-carboxylate] | > 5000 | 500 to 5000 |
| O=C(CC1CCCC1)Nc1ccn(CCC(F)Cn2cc(C(=O)NCc3cccc(C(F)(F)F)n3)nn2)c(=O)c1F (stereo not shown) [Example 318, 1-{4-[4-(2-cyclopentylacetamido)-3-fluoro-2-oxo-1,2-dihydropyridin-1-yl]-2-fluorobutyl}-N-{[6-(trifluoromethyl)pyridin-2-yl]methyl}-1H-1,2,3-triazole-4-carboxamide] | < 100 | < 100 |
| CC(C)(C)OC(=O)Nc1ccn(CCC(F)Cn2cc(C(=O)NCc3cc(C(F)(F)F)ccn3)nn2)c(=O)c1F (stereo not shown) [Example 320, tert-butyl N-(3-fluoro-1-{3-fluoro-4-[4-({[4-(trifluoromethyl)pyridin-2-yl]methyl}carbamoyl)-1H-1,2,3-triazol-1-yl]butyl}-2-oxo-1,2-dihydropyridin-4-yl)carbamate] | 100 to 500 | 100 to 500 |

More lines, now with the values ahead:

| EC50 [1] [nM] | IC50 [2] [nM] | SMILES |
| --- | --- | --- |
| 500 to 5000 | 100 to 500 | O=C(CC1CCNCC1)Nc1ccn(CCC(F)Cn2cc(C(=O)NCc3cccc(OC(F)(F)F)c3)nn2)c(=O)c1F (stereo not shown) [Example 299, 1-(2-fluoro-4-{3-fluoro-2-oxo-4-[2-(piperidin-4-yl)acetamido]-1,2-dihydropyridin-1-yl}butyl)-N-{[3-(trifluoromethoxy)phenyl]methyl}-1H-1,2,3-triazole-4-carboxamide] |
| 100 to 500 | < 100 | CS(=O)(=O)N1CCC(CC(=O)Nc2ccn(CCC(F)Cn3cc(C(=O)NCc4cccc(OC(F)(F)F)c4)nn3)c(=O)c2F)CC1 (stereo not shown) [Example 302, 1-(2-fluoro-4-{3-fluoro-4-[2-(1-methanesulfonylpiperidin-4-yl)acetamido]-2-oxo-1,2-dihydropyridin-1-yl}butyl)-N-{[3-(trifluoromethoxy)phenyl]methyl}-1H-1,2,3-triazole-4-carboxamide] |
| < 100 | < 100 | CC(=O)OC(C(=O)Nc1ccn(CC[C@H](F)Cn2cc(C(=O)NCc3cccc(OC(F)(F)F)c3)nn2)c(=O)c1F)c1ccccc1 (stereo partly drawn) [Example 305, (S)-[(3-fluoro-1-{3-fluoro-4-[4-({[3-(trifluoromethoxy)phenyl]methyl}carbamoyl)-1H-1,2,3-triazol-1-yl]butyl}-2-oxo-1,2-dihydropyridin-4-yl)carbamoyl](phenyl)methyl acetate] |
| 500 to 5000 | 500 to 5000 | CO[C@H](C(=O)Nc1ccn(CC(F)CCn2cc(C(=O)NCc3cccc(OC(F)(F)F)c3)nn2)c(=O)c1F)c1ccccc1 (stereo partly drawn) [Example 309, 1-(3-fluoro-4-{3-fluoro-4-[(2S)-2-methoxy-2-phenylacetamido]-2-oxo-1,2-dihydropyridin-1-yl}butyl)-N-{[3-(trifluoromethoxy)phenyl]methyl}-1H-1,2,3-triazole-4-carboxamide] |
| 500 to 5000 | 500 to 5000 | CO[C@@H](C(=O)Nc1ccn(CC(F)CCn2cc(C(=O)NCc3cccc(OC(F)(F)F)c3)nn2)c(=O)c1F)c1ccccc1 (stereo partly drawn) [Example 310, 1-(3-fluoro-4-{3-fluoro-4-[(2R)-2-methoxy-2-phenylacetamido]-2-oxo-1,2-dihydropyridin-1-yl}butyl)-N-{[3-(trifluoromethoxy)phenyl]methyl}-1H-1,2,3-triazole-4-carboxamide] |
| 100 to 500 | < 100 | CO[C@H](C(=O)Nc1ccn(CCC(F)Cn2cc(C(=O)NCc3ccc(C)nc3)nn2)c(=O)c1F)c1ccccc1 (stereo partly drawn) [Example 312, 1-(2-fluoro-4-{3-fluoro-4-[(2S)-2-methoxy-2-phenylacetamido]-2-oxo-1,2-dihydropyridin-1-yl}butyl)-N-[(6-methylpyridin-3-yl)methyl]-1H-1,2,3-triazole-4-carboxamide] |
| 100 to 500 | < 100 | CO[C@@H](C(=O)Nc1ccn(CCC(F)Cn2cc(C(=O)NCc3ccc(C)nc3)nn2)c(=O)c1F)c1ccccc1 (stereo partly drawn) [Example 313, 1-(2-fluoro-4-{3-fluoro-4-[(2R)-2-methoxy-2-phenylacetamido]-2-oxo-1,2-dihydropyridin-1-yl}butyl)-N-[(6-methylpyridin-3-yl)methyl]-1H-1,2,3-triazole-4-carboxamide] |
| 100 to 500 | 500 to 5000 | CC(C)(C)OC(=O)N1CCC(CC(=O)Nc2ccn(CC(F)CCn3cc(C(=O)NCc4cccc(OC(F)(F)F)c4)nn3)c(=O)c2F)CC1 (stereo not shown) [Example 314, tert-butyl 4-{[(3-fluoro-1-{2-fluoro-4-[4-({[3-(trifluoro-methoxy)phenyl]methyl}carbamoyl)-1H-1,2,3-triazol-1-yl]butyl}-2-oxo-1,2-dihydropyridin-4-yl)carbamoyl]methyl}piperidine-1-carboxylate] |
| < 100 | < 100 | O=C(Nc1ccn(CCC(F)Cn2cc(C(=O)NCc3cccc(OC(F)(F)F)c3)nn2)c(=O)c1F)C(=O)c1ccccc1 (stereo not shown) [Example 315, 1-{2-fluoro-4-[3-fluoro-2-oxo-4-(2-oxo-2-phenylacetamido)-1,2-dihydropyridin-1-yl]butyl}-N-{[3-(trifluoromethoxy)phenyl]methyl}-1H-1,2,3-triazole-4-carboxamide] |
| < 100 | < 100 | CC(C(=O)Nc1ccn(CCC(F)Cn2cc(C(=O)NCc3cccc(OC(F)(F)F)c3)nn2)c(=O)c1F)c1ccccc1 (stereo not shown) [Example 316, 1-{2-fluoro-4-[3-fluoro-2-oxo-4-(2-phenylpropanamido)-1,2-dihydropyridin-1-yl]butyl}-N-{[3-(trifluoromethoxy)phenyl]methyl}-1H-1,2,3-triazole-4-carboxamide] |
| < 100 | < 100 | O=C(Cc1ccccc1)Nc1ccn(CCC(F)Cn2cc(C(=O)NCc3cccc(C(F)(F)F)n3)nn2)c(=O)c1F (stereo not shown) [Example 317, 1-{2-fluoro-4-[3-fluoro-2-oxo-4-(2-phenylacetamido)-1,2-dihydropyridin-1-yl]butyl}-N-{[6-(trifluoromethyl)pyridin-2-yl]methyl}-1H-1,2,3-triazole-4-carboxamide] |

— patent US20160002204A1 (Board of Regents, The University of Texas System, priority 2014, published 2016)
